Source: publication PMC10360056, “Chemical Evolution of Amphiphilic Xenopeptides for Potentiated Cas9 Ribonucleoprotein Delivery” (Journal of the American Chemical Society, 2023)

Key:
HeLa WT cells [1] = assay: Endocytosis pathway study with inhibitors; assay type: cell-based; settings: 1 mM amiloride 2 h, 75 nM RNP, 4 h, flow cytometry
Experimental: (§1) sgRNA amount in naked Cas9/sgRNA ribonucleoproteins (Cas9 RNPs) or Cas9 RNP nanocarriers were determined using a Quant-iTTM RiboGreen® RNA assay kit (Invitrogen, CA, USA). 50 μL of naked Cas9 RNPs or Cas9 RNP nanocarriers con-taining 250 ng Cas9 protein and 50 ng sgRNA were mixed with 50 μL of TE buffer and were added to the 96-well plate. The plate was incubated for 10 min. Afterwards, 100 μL of Ribogreen solution (diluted 1:100 in TE buffer) was added to each well.
(§2) The plate was incubated for another 5 min. Ribogreen fluorescence intensity was detected using a microplate reader (Spectra-fluor Plus, Tecan, Männedorf, Switzerland) with excitation and emission wavelength of 485 and 528 nm, respectively. […]
(§3) Cells were harvested and resuspended in 600 μL of FACS buffer (PBS buffer containing 10 % FBS). […] The DAPI signal and BFP fluorescence were detected with 405 nm excitation and 450 nm emission. The eGFP and ATTO488 fluorescence was assayed with 488 nm excitation and 530 nm emission. The ATTO647N fluorescence was assayed with 640 nm excitation and 670 nm emission. Ten thousand of isolated live cells were counted and evaluated. The data were analyzed using FlowJo 7.6.5 by FlowJo, LLC (Becton, Dickinson and Company, USA).
(§4) Cell viability was determined using an MTT assay. […]
(§5) Cellular uptake of Cas9 RNP nanocarriers was evaluated by flow cytometry and confocal laser scanning microscopy (CLSM). […]

[2] = Dilution stability of Cas9 RNP nanocarriers (DLS); assay type: physicochemical; settings: prepared at 375 nM RNP, diluted with HBG, 0.1 nM RNP
Experimental: LogD7.4 determination of xenopeptides
Octanol-water partition coefficient D at pH 7.4 (logD7.4) was determined as previously reported with slight modification.5
Scheme S3 illustrates the logD7.4 determination procedures of all xenopeptides in this study. Briefly, 10 μL of 10 mg/mL xenopeptides in water were diluted with 90 μL HEPES buffer (20 mM, pH 7.4) in 1.5 mL reaction tubes. 100 μL n-octanol were then added. The tubes were shaken at 1400 rpm for 24 h. Afterwards, the tubes were centrifuged followed by storage at 4 °C for 1 h to separate n-octanol and water phases. 70 μL of each phase were injected for HPLC analysis. The extinction at 280 nm was monitored and the peak area (A) of the xenopeptides was calculated. LogD7.4 was calculated as log(Aoctanol / Awater).
All experiments were performed in triplicate.
Preparation of Cas9 RNP and Cas9 RNP/ssDNA nanocarriers […]
The hydrodynamic size, PDI and zeta potential of Cas9 RNP nanocarriers were measured by DLS using a Zetasizer Nano ZS (Malvern Instruments, UK). […] The hydrodynamic size of Cas9 RNP nanocarriers containing 1.25 μg Cas9 protein and 0.25 μg sgRNA (Cas9/sgRNA, 1:1 molar ratio) in 100 μL HBG was measured.
Afterwards, 700 μL HEPES buffer (20 mM, pH 7.4) were added to each sample and the soluti on was mixed for the zeta potential measurement. […] The size and zeta potential of diluted samples were measured as described above. […]

HeLa WT cells [3] = assay: Cellular uptake of Cas9 RNP nanocarriers (flow cytometry); assay type: cell-based; settings: 75 nM RNP, 20 % ATTO488-sgRNA, 4 h, flow cytometry MFI
Experimental: as §1, §2, §3, §4, §5

nanocarrier size detectability upon dilution [2]: still detectable
Structure (SMILES): CCCCC/C=C\C/C=C\CCCCCCCC(=O)NCCCC[C@H](NC(=O)CCCCCCC/C=C\C/C=C\CCCCC)C(=O)NCCCC[C@H](NC(=O)c1cc2ccccc2cc1C(=O)NCCNCCNCCNCCNC(=O)[C@H](Cc1ccc(O)cc1)NC(=O)[C@H](Cc1ccc(O)cc1)NC(=O)[C@H](Cc1ccc(O)cc1)NC(=O)[C@@H](N)CCCCN=[N+]=[N-])C(=O)NCCNCCNCCNCCNC(=O)c1cc2ccccc2cc1C(=O)N[C@@H](Cc1ccc(O)cc1)C(=O)N[C@@H](Cc1ccc(O)cc1)C(=O)N[C@@H](Cc1ccc(O)cc1)C(=O)O [Ntp1-LinA]
Cas9 RNP uptake after pretreatment with amiloride (macropinocytosis) (HeLa WT cells [1]): blocked | enhanced sgRNA uptake compared to the Stp-based analogue (HeLa WT cells [3]): 7.3 fold
